Measurements: patent US11795218B2, “Diagnosis and therapy of cancer involving cancer stem cells” (BioNTech AG, priority 2014, dated 2023)
Structures can show the parent of a compound that is named as a salt.

Experiments:
COV362(Luc) cells = experiment: CLDN6 surface expression on COV362(Luc) cells after pretreatment with cytostatic agents (flow cytometry); type: cell-based, human; details: 4 days drug (5 ng/ml paclitaxel, 20 μg/ml carboplatin, 25 ng/ml gemcitabine, 20 ng/ml doxorubicin, 7.5 ng/ml topotecan), then 3 or 10 days without drug
Procedure: ADCC activity of IMAB027 in combination with chemotherapy was analyzed using COV362(Luc) target cells. Therefore, cells were treated for 4 days with carboplatin, gemcitabine, paclitaxel, doxorubicin or topotecan at indicated concentrations. After treatment, cells were grown for 3 (A-D) and 10 days (E-J) in the absence of cytostatic drugs, respectively. Control cells were cultured without cytostatics. (A, C, E, G, I) ADCC experiments were performed with IMAB027 (black lines) or an isotype control antibody (grey lines) using PBMC from healthy donors at an effector (PBMC) to target cell ratio of ˜40:1. Data points (n=4 replicates) are depicted as mean±SD. (B, D, F, H, J) Expression of CLDN6 was analyzed by flow cytometry using IMAB027.
The cells were washed twice and resuspended in FACS buffer. The binding was analysed by flow cytometry using a BD FACSArray (BD Biosciences) and FlowJo software (Tree Star Inc.). The live/dead dye propidium iodide (Sigma, P4864) was used to exclude dead cells from the analysis.
The human ovarian carcinoma cell line COV362 stably transfected with luciferase as a reporter was used to determine the influence of carboplatin and paclitaxel on IMAB027-mediated ADCC. COV362(Luc) cells (3×10^6 cells per 150 mm cell culture dish) were grown under standard conditions. After 24 h, cells were treated with 5 ng/ml paclitaxel, 20 μg/ml carboplatin, 25 ng/ml gemcitabine, 20 ng/ml doxorubicin or 7.5 ng/ml topotecan and incubated for 4 days. The medium was changed and the treated cells were grown under standard growth conditions for further 3 days for carboplatin and gemcitabine or 10 days for paclitaxel, doxorubicin or topotecan.

[1] = tested on: human ES-2(CLDN6) xenograft tumors; experiment: Early ES-2(CLDN6) subcutaneous xenograft tumor model, IMAB027 with paclitaxel; type: in vivo, mice; details: s.c. ES-2(CLDN6) xenograft; paclitaxel 15 mg/kg i.p. day 3, 10, 17; IMAB027 35 mg/kg three times a week from day 4; vs control group
Procedure: Subcutaneous human ES-2 xenograft tumors ectopically expressing human CLDN6 were treated with 15 mg/kg paclitaxel on day 3, 10 and 17 post graft by i.p. injections. Antibody maintenance therapy started on day 4 with three 35 mg/kg IMAB027 injections per week (alternating i.v./i.p./i.p.).
Hsd:Athymic Nude-Foxn1^nu mice were engrafted with human cancer cell lines. […] The control group received antibody buffer (vehicle control).
Specifically, for treatment of human ES-2(CLDN6) xenograft tumors, the human ovarian carcinoma cell line ES-2 stably transfected with human CLDN6 was cultivated in Minimum Essential Media (Life Technologies) containing 1 x non-essential amino acids solution (Life Technologies), 700 μg/ml G418 (Life Technologies) and 10% FCS (Life Technologies) at 3TC in a humidified incubator with 5% CO2. For engraftment, 6 week-old female Hsd:Athymic Nude-Foxn1^nu mice were subcutaneously inoculated with 5×10^6 ES-2(CLDN6) cells in 200 μl PBS into the flank. On day 3 post subcutaneous tumor inoculation, mice were treated with either saline control, antibody or chemotherapeutic drug monotherapy and antibody/cytostatic drug combination therapy groups (n=12 per group). […] Tumor burden and animal health were monitored twice a week. […] Inhibition of tumor growth was analyzed using the Kruskal-Wallis test and the post-hoc Dunn's multiple comparison test.

[2] = tested on: human NEC14 xenograft tumors; experiment: Advanced NEC14 subcutaneous xenograft tumor model, IMAB027 with cisplatin or carboplatin; type: in vivo, mice; details: advanced s.c. NEC14 xenograft; cisplatin 1 mg/kg i.p. day 6-10; carboplatin 30 mg/kg i.p. day 6, 13, 20; IMAB027 35 mg/kg three times a week from day 6
Procedure: Subcutaneous human NEC14 xenograft tumors were grown to a median size of ˜100 mm^3 before the beginning of the treatment. Mice were treated with 1 mg/kg cisplatin by i.p. injections daily from day 6 to 10 post engraftment and with three 35 mg/kg IMAB027 injections per week (alternating i.v./i.p./i.p.) starting on day 6 as maintenance therapy. […] The arrow marks the time point of therapy start. (B) Individual tumor size in mice at day 24 post graft (mean with ±standard diviation). (C) Survival curves of treated mice. Group size: n=19. P-values: *, p<0.05; **, p<0.01 and ***, p<0.001.
Instead of cisplatin, mice were treated with 30 mg/kg carboplatin on days 6, 13 and 20 by bolus i.p. injections. […] The arrow marks the time point of therapy start. (B) Individual tumor size in mice at day 24 post graft (mean with ±standard diviation). (C) Survival curves of treated mice. Group size: n=19. P-values: *, p<0.05; **, p<0.01 and ***, p<0.001. […]
For treatment of advanced human NEC14 xenograft tumors the human testicular germ cell tumor cell line NEC14 was cultivated according to the instructions of the supplier in RPMI 1640 medium GlutaMAX™ (Life Technologies) containing 10% FCS (Life Technologies) at 3TC in a humidified incubator with 5% CO2. […] Tumor burden were monitored twice a week. […] Inhibition of tumor growth was analyzed using the Kruskal-Wallis test and the post-hoc Dunn's multiple comparison test.

| SMILES | protein levels of CLDN6 on the cell surface after pretreatment (COV362(Luc) cells) | tumor growth / anti-tumoral activity [1] | tumor growth / anti-tumoral efficacy [2] |
| --- | --- | --- | --- |
| CC(=O)O[C@H]1C(=O)[C@@]2(C)[C@H]([C@H](OC(=O)c3ccccc3)[C@]3(O)C[C@H](OC(=O)[C@H](O)[C@@H](NC(=O)c4ccccc4)c4ccccc4)C(C)=C1C3(C)C)[C@]1(OC(C)=O)CO[C@@H]1C[C@@H]2O [paclitaxel, (2α,4α,5β,7β,10β,13α)-4,10-bis-(acetyloxy)-13-{[(2R,3S)-3-(benzoylamino)-2-hydroxy-3-phenylpropanoyl]oxy}-1,7-dihydroxy-9-oxo-5,20-epoxytax-11-en-2-yl benzoate] | increased protein levels of CLDN6 on the cell surface | does not show anti-tumoral activity |  |
| Nc1ccn([C@@H]2O[C@H](CO)[C@@H](O)C2(F)F)c(=O)n1 [gemcitabine, 4-amino-1-(2-deoxy-2,2-difluoro-β-D-erythro-pentofuranosyl)pyrimidin-2 (1H)-one] | increased protein levels of CLDN6 on the cell surface |  |  |
| N.N.[Cl][Pt][Cl] [cisplatin, cis-diamminedichloroplatinum(II)] |  |  | highly significantly reduce tumor growth |
| COc1cccc2c1C(=O)c1c(O)c3c(c(O)c1C2=O)C[C@@](O)(C(=O)CO)C[C@@H]3O[C@H]1C[C@H](N)[C@H](O)[C@H](C)O1 [doxorubicin] | increased protein levels of CLDN6 on the cell surface |  |  |
| CC[C@@]1(O)C(=O)OCc2c1cc1n(c2=O)Cc2cc3c(CN(C)C)c(O)ccc3nc2-1 [topotecan, (S)-10-[(dimethylamino)methyl]-4-ethyl-4,9-dihydroxy-1H-pyrano[3′,4′:6,7]indolizino[1,2-b]quinoline-3,14(4H,12H)-dione monohydrochloride] | increased protein levels of CLDN6 on the cell surface |  |  |
